Source: patent publication US20180333382A1, “PHARMACEUTICAL COMPOSITIONS COMPRISING DGLA AND USE OF SAME” (DS Biopharma Limited, priority 2017, published 2018)
Like-named read-outs stand apart in the source and are kept apart here.

Tests used:
[1] = Phase one study: safety and tolerability (TEAEs, vital signs, ECG); details: for tolerability: healthy volunteers
Description: Screening procedures were conducted for both parts one and two before the start of the study on Day −1 (Baseline) by evaluating the safety assessments.
Subjects were monitored throughout their confinement at the Phase 1 unit for adverse reactions to the study drug and/or procedures.
Safety analyses were performed on the safety population tabulated by treatment arm, cohort, and visit. All safety data were characterized by descriptive statistical tools. […] Evaluation of safety assessments was performed in a descriptive manner. Continuous variables were characterized by their mean, standard deviation (SD), median, minimum and maximum values; discrete variables were characterized by their absolute (frequency) and relative (percentage) distribution.

[2] = Phase one study: effect of food on single 1000 mg dose PK (fasted vs fed); assay type: in vivo, human; details: for AUC0-24, mean, free DGLA, baseline-corrected plasma / AUC0-24/Dose, mean, free DGLA, baseline-corrected plasma / AUC0-24/Dose, mean, total DGLA, baseline-corrected plasma / AUC0-inf, mean, free DGLA, baseline-corrected plasma / AUC0-inf/Dose, mean, free DGLA, baseline-corrected plasma / CL/F, mean, free DGLA, baseline-corrected plasma / Cmax, mean, free DGLA, baseline-corrected plasma / Cmax/Dose, mean, free DGLA, baseline-corrected plasma / Cmax/Dose, mean, total DGLA, baseline-corrected plasma / λz, mean, free DGLA, baseline-corrected plasma / λz, mean, total DGLA, baseline-corrected plasma / half-life / Tmax: 1000 mg single dose; for mean baseline-corrected AUC0-24, total DGLA vs free DGLA / mean baseline-corrected Cmax, total DGLA vs free DGLA / half-life / Tmax: 1000 mg; for half-life / Tmax: human, plasma, oral; for half-life: read-out: t1/2, median, free DGLA, baseline-corrected plasma (converted); for Tmax: read-out: tmax, median, free DGLA, baseline-corrected plasma
Description: Subjects were randomly assigned in a 3:1 ratio of DG107G to placebo by block randomization. Single dose part one of the study comprised three cohorts of eight subjects each, with the addition of Cohort four based on evaluation of the safety data of Cohort three by the Safety Monitoring Committee (SMC). A single oral dose of DS107G or matching placebo was administered to fasted subjects in Cohorts one to three (500, 1000, and 2000 mg, respectively) in parallel; subjects in Cohort four were administered a dose of 4000 mg following completion of Cohort three. Subjects in Cohort two received 1000 mg or matching placebo in the fed state at 14 days after the first dose.
Food effect was evaluated in Cohort two at least 14 days after the first dose at which time a second single dose was administered. Subjects were administered a 1000-mg dose of study drug with 240 mL of water after a 10-hour fasting period and 30 minutes after starting consumption of a meal. Subjects then refrained from food intake for at least 4 hours after dosing. Food consumption was standardized for at least 12 hours after dosing using a standardized high-fat meal (800 to 1000 kcal with 500 to 600 kcal from fat and 250 kcal from carbohydrates). A typical standard test meal consisted of two eggs fried in butter, two strips of bacon, two slices of toast with butter, 120 mL of hash brown potatoes, and 240 mL of whole milk.
Subjects in Cohort two undergoing evaluation of the food effect on oral 1000 mg DGLA capsules were restricted from food consumption for at least 4 hours after dosing. Food consumption was standardized for at least 12 hours post dose using a standardized high-fat meal.

[3] = tested on: patients with moderate to severe atopic dermatitis having high eosinophil levels; assay: Post hoc stratification of the phase II study: subgroup with high eosinophil > 0.3 × 10^9/L; assay type: in vivo, human; details: daily, 8 weeks
Description: Further to the randomized, double-blind, placebo-controlled, phase II study of Example 2 above, a post hoc stratification analysis was performed using the results of that study to assess the efficacy of orally administered DS107G (DGLA) to patients with moderate to severe atopic dermatitis having normal eosinophil levels of less than about 0.3×10^9/L compared to the same population receiving placebo and/or to the total study population. The primary objective of the post hoc stratification study was to compare the efficacy of orally administered DS107G capsules, versus placebo, in the treatment of adult patients with moderate to severe atopic dermatitis having normal eosinophil levels of less than about 0.3×10^9/L. The secondary objective was to compare the efficacy of orally administered DS107G capsules in the treatment of adult patients with moderate to severe atopic dermatitis having normal eosinophil levels of less than about 0.3×10^9/L versus the total study population. Unless stated otherwise, all elements of the post hoc stratification analysis were the same as those of the phase II study described in Example 2 above.
A comparison of the total study population (see column “DS107 Phase 2a I.T.T.”), patients having normal eosinophil levels, and patients having high eosinophil levels separated by patients who received DS107 or placebo is shown in Table 32 below.

[4] = Phase one study part 2: free and total DGLA in skin blister fluid; assay type: in vivo, human
Source text: The PK of DGLA in human skin following multiple doses of DS107G capsule given once daily for 28 days to healthy subjects.

With `CCCCC/C=C\C/C=C\C/C=C\CCCCCCC(=O)O` [DS107G, Dihomo gamma linolenic acid] the tolerability ([1]; 2000- or 4000-mg once daily for 28 consecutive days) was “tolerated well”, the subjects reporting diarrhea ([1]; 2000-mg group, 3/6) was 50% and the subjects reporting diarrhea ([1]; 4000-mg group, 4/6) was 66.7%. For the same compound, the subjects reporting nausea ([1]; 4000-mg treatment group, 4/6, 10 events) was 66.7%, the deaths ([1]; multi-dose study) was “no deaths” and the “severe TEAEs” value ([1]; multiple dose) was “no severe TEAEs”. The “incidence of TEAEs” value ([1]; multiple dose, 11/12 active-treated subjects, total of 52 TEAEs) was 91.73%, the tolerability ([1]; single dose 500, 1000, 2000 or 4000 mg) was “well tolerated” and the “incidence of diarrhea (loose stool)” value ([1]; single dose, 5/24 active-treated subjects) was 20.8%. For the same compound, the “AUC0-24, mean, free DGLA, baseline-corrected plasma” value ([2]; fasted) was 3998.5 ng·h/mL, the “AUC0-24/Dose, mean, free DGLA, baseline-corrected plasma” value ([2]; fasted) was 4.00 h/kL and the “AUC0-24/Dose, mean, total DGLA, baseline-corrected plasma” value ([2]; fasted) was 215.37 h/kL. The “AUC0-inf, mean, free DGLA, baseline-corrected plasma” value ([2]; fasted) was 218.9556 µg·h/mL, the “AUC0-inf/Dose, mean, free DGLA, baseline-corrected plasma” value ([2]; fasted) was 218.96 h/kL and the “CL/F, mean, free DGLA, baseline-corrected plasma” value ([2]; fasted) was 0.1866 kL/h. The “Cmax, mean, free DGLA, baseline-corrected plasma” value ([2]; fasted) was 1602.8 ng/mL, the “Cmax/Dose, mean, free DGLA, baseline-corrected plasma” value ([2]; fasted) was 1.603 kL⁻¹ and the “Cmax/Dose, mean, total DGLA, baseline-corrected plasma” value ([2]; fasted) was 15.750 kL⁻¹. For the same compound, the “λz, mean, free DGLA, baseline-corrected plasma” value ([2]; fasted) was 0.0487 h⁻¹, the “λz, mean, total DGLA, baseline-corrected plasma” value ([2]; fasted) was 0.0136 h⁻¹ and the “AUC0-24, mean, free DGLA, baseline-corrected plasma” value ([2]; fed) was 2102.7 ng·h/mL. For the same compound, the “AUC0-24/Dose, mean, free DGLA, baseline-corrected plasma” value ([2]; fed) was 2.10 h/kL, the “AUC0-24/Dose, mean, total DGLA, baseline-corrected plasma” value ([2]; fed) was 117.39 h/kL and the “AUC0-inf, mean, free DGLA, baseline-corrected plasma” value ([2]; fed) was 29.1508 µg·h/mL. The “AUC0-inf/Dose, mean, free DGLA, baseline-corrected plasma” value ([2]; fed) was 29.15 h/kL, the “CL/F, mean, free DGLA, baseline-corrected plasma” value ([2]; fed) was 0.1658 kL/h and the “Cmax, mean, free DGLA, baseline-corrected plasma” value ([2]; fed) was 520.2 ng/mL. For the same compound, the “Cmax/Dose, mean, free DGLA, baseline-corrected plasma” value ([2]; fed) was 0.520 kL⁻¹, the “Cmax/Dose, mean, total DGLA, baseline-corrected plasma” value ([2]; fed) was 10.317 kL⁻¹ and the “λz, mean, free DGLA, baseline-corrected plasma” value ([2]; fed) was 0.0403 h⁻¹. For the same compound, the “λz, mean, total DGLA, baseline-corrected plasma” value ([2]; fed) was 0.0805 h⁻¹, the “mean baseline-corrected AUC0-24, total DGLA vs free DGLA” value ([2]; fasted) was roughly 54 fold and the “mean baseline-corrected Cmax, total DGLA vs free DGLA” value ([2]; fasted) was roughly 10 fold. The “mean baseline-corrected AUC0-24, total DGLA vs free DGLA” value ([2]; fed) was roughly 56 fold, the “mean baseline-corrected Cmax, total DGLA vs free DGLA” value ([2]; fed) was roughly 20 fold and the half-life ([2]; fasted) was 1.18 days. The Tmax ([2]; fasted) was 4 h, the half-life ([2]; fed) was 5.87 days and the Tmax ([2]; fed) was 5 h. The “free DGLA Cmax occurred sooner under fasted than fed conditions (median)” value ([2]; single 1000-mg dose) was 1 h, the “higher rate and extent of total DGLA absorption under fasted conditions (mean Cmax and AUC0-24)” value ([2]; single 1000-mg dose) was “approximately 50%” and the “mean baseline-corrected free DGLA Cmax, fasted vs fed” value ([2]; single 1000-mg dose) was “about 3 fold”. The “mean free DGLA baseline-corrected AUC0-24, fasted vs fed” value ([2]; single 1000-mg dose) was “about 2 fold”, the “total DGLA mean baseline-corrected AUC0-24, fasted vs fed” value ([2]; single 1000-mg dose) was “about 1.8 fold” and the “total DGLA mean baseline-corrected Cmax, fasted vs fed” value ([2]; single 1000-mg dose) was “about 1.5 fold”. The “total DGLA tmax occurred sooner under fasted than fed conditions” value ([2]; single 1000-mg dose) was “about 50%”, the “BSA Change from Baseline” value [3] was −14.9% and the “EASI Percentage Change from Baseline” value [3] was −20.1%. The “EASI-50 (%)” value [3] was 22.7%, the “EASI-75 (%)” value [3] was 9.1% and the “IGA responder (%)” value [3] was 0%. The “Pruritus Percentage Change from Baseline” value [3] was −6.5%, the “mean free DGLA concentrations in skin blister fluid with a doubling in dose” value ([4]; Days 1, 8, 14 and 28) was “approximately doubled” and the “mean free DGLA concentrations in skin blister fluid, Day 28 vs Day 1” value ([4]; both 2000 and 4000 mg daily) was “about 3 fold”. The “mean concentrations of free DGLA, plasma vs skin blister fluid” value ([4]; same dose, Day 8 and Day 14 (but not Day 28)) was “somewhat similar in plasma and skin blister fluid” and the “mean concentrations of total DGLA, plasma vs skin blister fluid” value ([4]; same dose, after Day 1) was “much higher in plasma than in skin blister fluid”.
